SMILES strings stand for the structures. Values after ≈ are worked out from the molar mass of the structure shown. Values joined by “and” are separate entries in the source; they are usually repeats but may differ in a detail not shown here. Equal entries are not always repeated. Where two headings read alike, the source gives them in different places. Some results are limits rather than exact numbers.

One experiment addresses T1, S. aureus DNA gyrase (Staphylococcus aureus, UniProt P20831).
T1 construct: purchased Inspiralis (Norwich, UK)
Put plainly: DNA gyrase supercoiling inhibition assay (S. aureus). Format: biochemical. The settings on record: mean of two independent measurements ± SD. The method, then:
We synthesized and biologically evaluated ten new compounds. We determined their inhibitory activity, expressed as IC50 values, on both Gram-positive S. aureus and Gram-negative E. coli bacterial enzymes (DNA gyrase and topo IV), respectively. The in vitro antibacterial activity, expressed as minimum inhibitory concentration (MIC), was determined against broad spectrum of bacteria, including Gram-positive (Staphylococcus aureus, methicillin-resistant Staphylococcus aureus, Streptococcus agalactiae, and Enterococcus faecalis) and Gram-negative strains (Escherichia coli, Salmonella alachua, Pseudomonas aeruginosa, and Klebsiella pneumoniae), enriched with various MRSA strains resistant to various antibiotics as well as E. coli strains with increased membrane permeability and lack of efflux pump, as well. Furthermore, the selectivity of compounds for bacterial enzyme compared to the orthologous human topoisomerase IIα was also considered. The in vitro safety profile was determined by cytotoxicity assessment on human umbilical vein endothelial cell lines (HUVEC) and HepG2 liver cancer cell lines.
Determination of DNA gyrase and topoisomerase IV inhibitory activities
To determine the IC50 values of the compounds, a Gyrase Supercoiling High Throughput Plate assay kit and a TopoIV Relaxation High Throughput Plate assay kit, commercially available from Inspiralis (Norwich, UK), were used for S. aureus and E. coli. The assays were performed on black streptavidin-coated 96-well microtiter plates (Thermo Scientific Pierce, Norwich, UK) and the wells were first […]
BSA and 0.05% [v/v] Tween-20). Biotinylated oligonucleotide diluted with the wash buffer was then immobilized in each well and the excess was removed with the wash buffer. 1.5 U of the enzyme S. aureus or E. coli DNA gyrase (topoIV) was incubated together with 0.75 μg of relaxed (supercoiled) pNO1 plasmid as substrate in the presence of 3 μl inhibitor solution in 10% DMSO and 0.008% Tween-20 at 37°C for 30 min in a final reaction volume of 30 μl in the assay buffer (S. aureus DNA gyrase: 40 mM HEPES.KOH (pH 7.6), 10 mM magnesium acetate, 10 mM DTT, 2 mM ATP, 500 mM potassium glutamate and 0.05 mg/ml albumin; E. coli DNA gyrase: 35 mM Tris.HCl (pH 7.5), 24 […]
mg/ml albumin; S. aureus topo IV: 50 mM Tris.HCl (7.5), 5 mM MgCl 2, 5 mM DTT, 1.5 mM ATP, 350 mM potassium glutamate and 0.05 mg/ml albumin; E. coli topo IV: 40 mM HEPES.KOH (pH 7.6), 100 mM potassium glutamate, 10 mM magnesium acetate, 10 mM DTT, 1 mM ATP and 50 μg/ml albumin). The reaction was stopped by adding the TF buffer (50 mM NaOAc (pH 4.7), 50 mM NaCl and 50 mM MgCl2) to allow triplex formation (biotin oligonucleotide plasmid) for another 30 min. Finally, the unbound plasmid was washed off using the TF buffer and the Promega Diamond dye was added to T10 buffer (10 mM Tris-HCl (pH 8.0), 1 mM EDTA) solution. After 15 min the solution […]
Two inhibitor concentrations of 100 and 1 μM were used for pre-screening. The IC 50 values […]
(IC50) was calculated by nonlinear regression-based fitting of the inhibition curves using the log [inhibitor] versus response-variable slope (four parameters) – symmetrical equation, in GraphPad Prism 6.0 software (GraphPad Software, CA, USA). The IC50 value represents the average of two independent measurements.
The minimum inhibitory concentrations (MICs) were determined using the broth micro-dilution method in 96-well plate format according to the Clinical and Laboratory Standards Institute

The next experiment has as its target Human topoisomerase IIα (Homo sapiens, UniProt P11388). Put plainly: Human topoisomerase IIα residual activity. Format: biochemical. The settings on record: residual activity at 10 μM compound; mean ± SD, two independent experiments; read-out: Human topoisomerase IIα (%RA).
In the next experiment the test system is E. coli (ATCC 25922). As to the kind of experiment: microbe, parasite or virus in culture. The settings on record: Escherichia coli, ATCC25922, read-out: MIC E. coli (ATCC 25922). How it is done: (§1) The in vitro antibacterial activity, expressed as minimum inhibitory concentration (MIC), was determined against broad spectrum of bacteria, including Gram-positive (Staphylococcus aureus, methicillin-resistant Staphylococcus aureus, Streptococcus agalactiae, and Enterococcus faecalis) and Gram-negative strains (Escherichia coli, Salmonella alachua, Pseudomonas aeruginosa, and Klebsiella pneumoniae), enriched with various MRSA strains resistant to various antibiotics as well as E. coli strains with increased membrane permeability and lack of efflux pump, as well. […]
(§2) The minimum inhibitory concentrations (MICs) were determined using the broth micro-dilution method in 96-well plate format according to the Clinical and Laboratory Standards Institute […]
(§3) guidelines8 and European Committee on Antimicrobial Susceptibility Testing recommendations9. The bacterial suspension of the specific bacterial strain equivalent to the 0.5 McFarland turbidity standard was diluted with cation-adapted Mueller Hinton broth with TES (Thermo Fisher Scientific) to obtain a […]
(§4) The compounds dissolved in DMSO and inoculum were mixed together and incubated for 20 h at 35 °C.

A further experiment concerns E. coli D22. Put plainly: microbe, parasite or virus in culture. The settings on record: Escherichia coli. The method, then:
as §1, §2, §3, §4

Experiment [1] has as its system E. coli N43 (CGSC no. 5583). As to the kind of experiment: microbe, parasite or virus in culture. The settings on record: Escherichia coli. The method, then:
as §1, §2, §3, §4

The test system of experiment [2] is Enterococcus faecalis DRK 057 (ATCC 29212). As to the kind of experiment: microbe, parasite or virus in culture. How it is done: as §1, §2, §3, §4
The test system of a further experiment is Klebsiella pneumoniae. Put plainly: microbe, parasite or virus in culture. The method, then: as §1, §2, §3, §4
The next experiment deals with MRSA (QA-11.7). Put plainly: microbe, parasite or virus in culture. The settings on record: Staphylococcus aureus, read-out: MIC MRSA (QA-11.7). The method, then: as §1, §2, §3, §4
The next experiment relates to MRSA (QA-12.1). As to the kind of experiment: microbe, parasite or virus in culture. The settings on record: Staphylococcus aureus, read-out: MIC MRSA (QA-12.1). The method, then: as §1, §2, §3, §4
Experiment [3] deals with Pseudomonas aeruginosa RDK 184 (DSM 939). As to the kind of experiment: microbe, parasite or virus in culture. The method, then: as §1, §2, §3, §4
The next experiment deals with S. aureus (ATCC 29213). As to the kind of experiment: microbe, parasite or virus in culture. The settings on record: Staphylococcus aureus, ATCC29213, read-out: MIC S. aureus (ATCC 29213). The method, then: as §1, §2, §3, §4
The test system of experiment [4] is Salmonella alachua RDK 030c (QA-1482/04). Put plainly: microbe, parasite or virus in culture. How it is done:
as §1, §2, §3, §4

Experiment [5] deals with Streptococcus agalactiae RDK 047 (QA-990/02). Put plainly: microbe, parasite or virus in culture. How it is done:
as §1, §2, §3, §4

The mark [6] stands for this setting: read-out: MIC E. coli N43 (CGSC no. 5583).
Setting [7] is: read-out: MIC E. coli N43 (CGSC# 5583).
Setting [8] is: ATCC29212, read-out: MIC E. faecalis DRK 057 (ATCC 29212).
[9] abbreviates: ATCC29212, read-out: MIC Enterococcus faecalis DRK 057 (ATCC 29212).
[10] abbreviates: read-out: MIC Klebsiella pneumoniae.
Where [11] appears, read: DSM939, read-out: MIC P. aeruginosa RDK 184 (DSM 939).
Setting [12] is: DSM939, read-out: MIC Pseudomonas aeruginosa RDK 184 (DSM 939).
The mark [13] stands for this setting: read-out: MIC S. alachua RDK 030c (QA-1482/04).
[14] abbreviates: read-out: MIC Salmonella alachua RDK 030c (QA-1482/04).
The mark [15] stands for this setting: read-out: MIC S. agalactiae RDK 047 (QA-990/02).
Setting [16] is: read-out: MIC Streptococcus agalactiae RDK 047 (QA-990/02).

Human topoisomerase IIα, sequence (P11388 whole entry): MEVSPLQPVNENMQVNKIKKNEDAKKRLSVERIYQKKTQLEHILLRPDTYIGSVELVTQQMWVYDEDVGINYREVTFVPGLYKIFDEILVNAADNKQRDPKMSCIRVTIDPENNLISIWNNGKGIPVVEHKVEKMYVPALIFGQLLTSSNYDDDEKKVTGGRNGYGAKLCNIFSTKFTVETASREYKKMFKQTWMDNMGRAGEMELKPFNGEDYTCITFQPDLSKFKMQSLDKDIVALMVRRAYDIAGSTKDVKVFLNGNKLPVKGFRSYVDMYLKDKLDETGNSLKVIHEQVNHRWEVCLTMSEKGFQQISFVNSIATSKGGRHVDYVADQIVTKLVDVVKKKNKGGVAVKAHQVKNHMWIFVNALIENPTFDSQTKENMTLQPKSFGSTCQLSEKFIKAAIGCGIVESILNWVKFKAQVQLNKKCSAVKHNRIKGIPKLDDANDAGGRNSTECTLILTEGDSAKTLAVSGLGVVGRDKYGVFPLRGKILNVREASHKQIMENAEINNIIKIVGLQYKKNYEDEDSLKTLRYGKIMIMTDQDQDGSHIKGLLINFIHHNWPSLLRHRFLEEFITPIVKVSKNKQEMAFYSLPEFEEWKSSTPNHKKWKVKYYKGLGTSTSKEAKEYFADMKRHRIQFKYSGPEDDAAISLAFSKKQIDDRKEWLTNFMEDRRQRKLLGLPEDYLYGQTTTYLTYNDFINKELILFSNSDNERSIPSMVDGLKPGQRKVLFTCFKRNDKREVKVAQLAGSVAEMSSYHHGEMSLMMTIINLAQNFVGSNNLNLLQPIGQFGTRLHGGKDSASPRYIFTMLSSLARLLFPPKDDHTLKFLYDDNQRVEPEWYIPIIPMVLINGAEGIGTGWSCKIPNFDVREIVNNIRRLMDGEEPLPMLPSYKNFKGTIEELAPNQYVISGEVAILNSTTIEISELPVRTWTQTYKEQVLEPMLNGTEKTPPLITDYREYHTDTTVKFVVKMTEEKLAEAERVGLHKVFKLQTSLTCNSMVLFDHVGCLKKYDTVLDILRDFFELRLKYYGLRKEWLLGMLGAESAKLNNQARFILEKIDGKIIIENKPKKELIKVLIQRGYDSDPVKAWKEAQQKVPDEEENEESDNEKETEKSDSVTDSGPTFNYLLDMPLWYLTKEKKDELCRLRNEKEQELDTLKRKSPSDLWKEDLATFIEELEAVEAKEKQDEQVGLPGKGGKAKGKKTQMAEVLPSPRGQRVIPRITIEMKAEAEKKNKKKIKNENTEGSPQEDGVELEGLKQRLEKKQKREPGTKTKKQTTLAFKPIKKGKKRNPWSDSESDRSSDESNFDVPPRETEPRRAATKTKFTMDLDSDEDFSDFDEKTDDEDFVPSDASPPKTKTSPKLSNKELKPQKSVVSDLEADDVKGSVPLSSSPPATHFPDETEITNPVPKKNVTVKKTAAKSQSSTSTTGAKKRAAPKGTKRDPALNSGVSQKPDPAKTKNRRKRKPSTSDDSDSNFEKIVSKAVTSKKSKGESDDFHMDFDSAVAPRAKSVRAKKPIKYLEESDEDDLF
T1 sequence (P20831 whole entry, looked up): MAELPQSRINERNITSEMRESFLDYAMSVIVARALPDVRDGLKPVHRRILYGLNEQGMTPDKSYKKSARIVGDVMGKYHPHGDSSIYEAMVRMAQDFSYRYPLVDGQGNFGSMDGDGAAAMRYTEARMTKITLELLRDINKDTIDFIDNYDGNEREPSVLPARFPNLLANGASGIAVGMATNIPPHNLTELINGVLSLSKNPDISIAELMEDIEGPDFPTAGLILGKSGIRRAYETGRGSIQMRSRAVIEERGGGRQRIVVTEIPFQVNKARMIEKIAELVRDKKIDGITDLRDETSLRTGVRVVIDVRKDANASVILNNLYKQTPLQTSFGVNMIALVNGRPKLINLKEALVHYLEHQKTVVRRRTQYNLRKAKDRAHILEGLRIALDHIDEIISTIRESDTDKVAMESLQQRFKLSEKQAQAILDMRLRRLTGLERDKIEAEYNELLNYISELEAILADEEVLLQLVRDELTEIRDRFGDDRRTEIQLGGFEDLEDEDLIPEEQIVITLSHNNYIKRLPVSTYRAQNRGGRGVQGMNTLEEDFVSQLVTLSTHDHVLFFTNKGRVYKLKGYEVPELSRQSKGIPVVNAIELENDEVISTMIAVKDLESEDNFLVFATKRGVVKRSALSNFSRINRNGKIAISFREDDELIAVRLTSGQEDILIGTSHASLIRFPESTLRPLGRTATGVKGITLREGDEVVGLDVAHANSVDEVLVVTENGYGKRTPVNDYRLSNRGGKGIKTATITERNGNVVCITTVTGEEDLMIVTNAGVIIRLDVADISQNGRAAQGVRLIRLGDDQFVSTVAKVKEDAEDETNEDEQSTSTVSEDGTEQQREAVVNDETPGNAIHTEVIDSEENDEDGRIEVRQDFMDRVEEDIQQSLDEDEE

Regarding `COc1ccc2nccc(CCN3CCC(NCc4ccc(Cl)cn4)CC3)c2n1` [Compound 13], the IC50 – broadly, the concentration that gives 50% inhibition – against S. aureus DNA gyrase was found to be 123 ± 19 nM. Also, the remaining activity at 10 µM at Human topoisomerase IIα worked out at 99.36 ± 0.34%. For the same compound, the MIC in the experiment on E. coli (ATCC 25922) was 77.7 µM and 32 µg/mL; in the experiment on E. coli D22 (D22, read-out: MIC E. coli D2) it was 38.8 µM; in the experiment on E. coli D22 (D22, read-out: MIC E. coli D22) it was 16 µg/mL; in experiment [1] (setting [6]), 8 µg/mL; in [1] (setting [7]), 19.4 µM; in [2] (setting [8]) it was 9.71 µM. The MIC is 4 µg/mL in [2] (setting [9]); more than 311 µM in the experiment on Klebsiella pneumoniae (read-out: MIC K. pneumoniae); more than 128 µg/mL in the experiment on Klebsiella pneumoniae (setting [10]); 0.607 µM and 0.25 µg/mL with MRSA (QA-11.7); 0.607 µM and 0.25 µg/mL in the experiment with MRSA (QA-12.1); more than 311 µM in experiment [3] (setting [11]). In addition, the MIC in [3] (setting [12]) is more than 128 µg/mL; with S. aureus (ATCC 29213) it was 0.303 µM and 0.125 µg/mL; in experiment [4] (setting [13]), more than 311 µM; in experiment [4] (setting [14]), more than 128 µg/mL; in experiment [5] (setting [15]) it was 19.4 µM; in [5] (setting [16]), 8 µg/mL.
`COc1ccc2nccc(CCN3CCC(NCc4ccc(Br)c(F)c4F)CC3)c2n1` [Compound 10] returned an IC50 against S. aureus DNA gyrase of 9 nM. Besides, the remaining activity at 10 µM on Human topoisomerase IIα amounted to 98.11 ± 0.91%. The MIC is 8.14 µM and 4 µg/mL in the experiment with E. coli (ATCC 25922); 1.02 µM in the experiment on E. coli D22 (D22, read-out: MIC E. coli D2); 0.5 µg/mL in the experiment on E. coli D22 (D22, read-out: MIC E. coli D22); 0.125 µg/mL in experiment [1] (setting [6]); 0.254 µM in [1] (setting [7]); 4.07 µM in experiment [2] (setting [8]). The MIC in experiment [2] (setting [9]) is 2 µg/mL; in the experiment with Klebsiella pneumoniae (read-out: MIC K. pneumoniae), 130 µM; in the experiment on Klebsiella pneumoniae (setting [10]) it was 64 µg/mL; in the experiment on MRSA (QA-11.7), 0.126 µM and 0.062 µg/mL; with MRSA (QA-12.1) it was 0.126 µM and 0.062 µg/mL; in experiment [3] (setting [11]), more than 260 µM. The MIC in [3] (setting [12]) is more than 128 µg/mL; in the experiment with S. aureus (ATCC 29213) it was 0.063 µM and 0.031 µg/mL; in [4] (setting [13]) it was 32.6 µM; in experiment [4] (setting [14]) it was 16 µg/mL; in experiment [5] (setting [15]), 4.07 µM; in experiment [5] (setting [16]) it was 2 µg/mL.
`O=c1ccc2ncc(=O)n3c2n1C[C@H]3CN1CCC(NCc2cc3c(cn2)OCCC3)CC1` [Gepotidacin, gepotidacin, reference compound]: the MIC was 2.23 µM and 1 µg/mL with E. coli (ATCC 25922); 0.279 µM with E. coli D22 (D22, read-out: MIC E. coli D2); 0.016 µg/mL in experiment [1] (setting [6]); 0.036 µM in [1] (setting [7]); 17.8 µM in the experiment with Klebsiella pneumoniae (read-out: MIC K. pneumoniae); 8 µg/mL in the experiment with Klebsiella pneumoniae (setting [10]). In addition, the MIC is 0.138 µM and 0.062 µg/mL in the experiment with MRSA (QA-11.7); 0.279 µM and 0.125 µg/mL with MRSA (QA-12.1); 17.8 µM in experiment [3] (setting [11]); 8 µg/mL in experiment [3] (setting [12]); 0.279 µM (≈ 0.125 µg/mL) in the experiment on S. aureus (ATCC 29213); 8.92 µM in experiment [4] (setting [13]). For the same compound, the MIC in [4] (setting [14]) was determined as 4 µg/mL.

(Values after publication PMC8436411 (ACS Medicinal Chemistry Letters, 2021).)
